Test results from the supplement of paper PMC13380429.

Assays:
Conditions in all cases: 72 h
Caco-2 [1] = test: drug sensitivity score (DSS) for viability; higher = more toxic; extreme values may be limits of the assay
HepG2 [2] = test: as above
Vero E6 [3] = test: as above
Calu-3 [4] = test: as above
U2OS [5] = test: as above
Caco-2 [6] = test: relative viability EC50 (midpoint between 100% and the lowest measured viability); higher = less toxic
HepG2 [7] = test: as above
Vero E6 [8] = test: as above
Calu-3 [9] = test: as above
U2OS [10] = test: as above
Caco-2 [11] = test: cell viability relative to DMSO; higher = less toxic
HepG2 [12] = test: as above
Vero E6 [13] = test: as above
Calu-3 [14] = test: as above
U2OS [15] = test: as above

Row | SMILES | drug sensitivity score (Caco-2 [1]) | drug sensitivity score (HepG2 [2]) | drug sensitivity score (Vero E6 [3]) | drug sensitivity score (Calu-3 [4]) | drug sensitivity score (U2OS [5]) | relative viability EC50 (Caco-2 [6]) [µM] | relative viability EC50 (HepG2 [7]) [µM] | relative viability EC50 (Vero E6 [8]) [µM] | relative viability EC50 (Calu-3 [9]) [µM] | relative viability EC50 (U2OS [10]) [µM] | cell viability (Caco-2 [11]; 1 nM) [%] | cell viability (Caco-2 [11]; 10 nM) [%] | cell viability (Caco-2 [11]; 100 nM) [%] | cell viability (Caco-2 [11]; 1000 nM) [%] | cell viability (Caco-2 [11]; 10000 nM) [%] | cell viability (HepG2 [12]; 1 nM) [%] | cell viability (HepG2 [12]; 10 nM) [%] | cell viability (HepG2 [12]; 100 nM) [%] | cell viability (HepG2 [12]; 1000 nM) [%] | cell viability (HepG2 [12]; 10000 nM) [%] | cell viability (Vero E6 [13]; 1 nM) [%] | cell viability (Vero E6 [13]; 10 nM) [%] | cell viability (Vero E6 [13]; 100 nM) [%] | cell viability (Vero E6 [13]; 1000 nM) [%] | cell viability (Vero E6 [13]; 10000 nM) [%] | cell viability (Calu-3 [14]; 1 nM) [%] | cell viability (Calu-3 [14]; 10 nM) [%] | cell viability (Calu-3 [14]; 100 nM) [%] | cell viability (Calu-3 [14]; 1000 nM) [%] | cell viability (Calu-3 [14]; 10000 nM) [%] | cell viability (U2OS [15]; 1 nM) [%] | cell viability (U2OS [15]; 10 nM) [%] | cell viability (U2OS [15]; 100 nM) [%] | cell viability (U2OS [15]; 1000 nM) [%] | cell viability (U2OS [15]; 10000 nM) [%]
1 | Nc1nc2c(ncn2[C@@H]2O[C@H](CO)[C@@H](O)[C@H]2O)c(=O)[nH]1 [guanosine] | 0 | 0 | 0 | 0 | 0 | > 10 | > 10 | > 10 | > 10 | > 10 | 85.6 | 102 | 97.8 | 99.9 | 105 | 102 | 95.8 | 105 | 100 | 102 | 92.6 | 93.5 | 92.4 | 89.7 | 102 | 96 | 102 | 100 | 97 | 101 | 96.9 | 102 | 98.2 | 100 | 102
2 | CN(C)/C=N/c1c(I)cc(I)c(CCC(=O)O)c1I [iopodic-acid] | 0 | 0 | 0 | 0 | 0 | > 10 | > 10 | > 10 | > 10 | > 10 | 99.8 | 102 | 94.3 | 96.2 | 105 | 98.8 | 93.7 | 116 | 95 | 98.4 | 108 | 101 | 108 | 99.1 | 102 | 101 | 95.4 | 89.5 | 99.4 | 93.2 | 98.2 | 100 | 98.9 | 102 | 97.2
3 | CC(=O)OCC1=C(C(=O)O)N2C(=O)[C@@H](NC(=O)CSc3ccncc3)[C@H]2SC1 [cephapirin] | 0 | 0 | 0 | 0 | 0 | > 10 | > 10 | > 10 | > 10 | > 10 | 93.9 | 109 | 94.8 | 97.6 | 96.1 | 104 | 91.1 | 102 | 93.3 | 103 | 95.6 | 98 | 95.6 | 97.1 | 102 | 98.9 | 92.3 | 90.9 | 101 | 97.7 | 96.6 | 99.6 | 93.8 | 94.6 | 104
4 | C[C@@H](O)[C@H]1C(=O)N2C(C(=O)O)=C(S[C@@H]3CN[C@H](CNS(N)(=O)=O)C3)[C@H](C)[C@H]12 [doripenem] | 0 | 0 | 0 | 0 | 0 | > 10 | > 10 | > 10 | > 10 | > 10 | 103 | 98 | 95.2 | 92.3 | 107 | 104 | 106 | 91 | 99.9 | 96.8 | 104 | 104 | 97.3 | 99.4 | 97.3 | 93.1 | 85.6 | 84 | 95.1 | 94.4 | 95.6 | 94.6 | 95.1 | 95.2 | 94.7
5 | COc1cc(/C=C/C(=O)N2CCN(CC(=O)N3CCCC3)CC2)cc(OC)c1OC [cinepazide] | 0 | 0 | 0 | 0 | 0 | > 10 | > 10 | > 10 | > 10 | > 10 | 96.4 | 105 | 94.9 | 103 | 91.3 | 101 | 96.9 | 90.8 | 98.2 | 96.1 | 98.5 | 98.1 | 102 | 100 | 98.6 | 104 | 96 | 95.8 | 94 | 101 | 92.6 | 97.5 | 92.1 | 100 | 95.6
6 | c1ccc(C(NCCNC(c2ccccc2)c2ccccc2)c2ccccc2)cc1 [AMN-082] | 0 | 0.2 | 0 | 0 | 0 | > 10 | > 10 | > 10 | > 10 | > 10 | 98.9 | 104 | 96.5 | 94.8 | 94.8 | 103 | 92.4 | 108 | 98.9 | 87.4 | 104 | 95 | 95 | 93.6 | 114 | 99 | 97.7 | 96.9 | 95.7 | 92.2 | 96.5 | 97.8 | 96.7 | 105 | 93.8
7 | OC[C@H]1NC[C@@H](O)[C@@H](O)[C@@H]1O [1-deoxymannojirimycin] | 0 | 0 | 0 | 0 | 0 | > 10 | > 10 | > 10 | > 10 | > 10 | 95.3 | 96.8 | 98.2 | 97 | 104 | 109 | 96.2 | 94.5 | 93.1 | 97.7 | 99.1 | 93 | 98.2 | 96.8 | 107 | 106 | 96.8 | 97 | 95.4 | 90.8 | 96.8 | 102 | 95.8 | 100 | 108
8 | CCN(CC)CCOC(=O)C(c1ccccc1)C1CCCCC1 (stereo not given) [drofenine] | 0 | 2.6 | 0.1 | 0 | 0 | > 10 | > 10 | > 10 | > 10 | > 10 | 102 | 96 | 99.3 | 88.2 | 111 | 93.7 | 87.5 | 86.6 | 86.9 | 87.8 | 103 | 110 | 100 | 107 | 85.8 | 107 | 110 | 109 | 97.3 | 98 | 102 | 99.1 | 100 | 98.2 | 102
9 | CC(C)=CCC/C(C)=C/CC/C(C)=C/CC[C@]1(C)CCc2cc(O)cc(C)c2O1 [delta-tocotrienol] | 0 | 0 | 0 | 0 | 0 | > 10 | > 10 | > 10 | > 10 | > 10 | 99.3 | 99.1 | 81.7 | 97.1 | 105 | 90.7 | 85.3 | 98.6 | 91 | 97.1 | 107 | 93.1 | 104 | 96.9 | 108 | 94.6 | 102 | 93.2 | 101 | 113 | 97.5 | 99.8 | 98.2 | 102 | 97.9
10 | O=C1CCc2cc(OCCCCc3nnnn3C3CCCCC3)ccc2N1 [cilostazol] | 0 | 0 | 0 | 0 | 0 | > 10 | > 10 | > 10 | > 10 | > 10 | 97.5 | 104 | 99.7 | 101 | 90.3 | 114 | 99.9 | 110 | 99.4 | 92.6 | 91.5 | 99 | 96.9 | 101 | 95.7 | 94.3 | 107 | 99.1 | 115 | 111 | 93.2 | 96.9 | 94 | 96.5 | 95
11 | CCCCCCCCCCCCc1ccc(S(=O)(=O)Nc2nncs2)cc1 [PHT-427] | 0 | 0 | 0 | 0 | 0 | > 10 | > 10 | > 10 | > 10 | > 10 | 95.2 | 95.3 | 101 | 98.1 | 97.4 | 93.6 | 106 | 88.1 | 102 | 92.6 | 106 | 108 | 102 | 97.8 | 104 | 96.4 | 94.9 | 95.6 | 99.6 | 99 | 102 | 97.5 | 98.2 | 98.7 | 99.9
12 | Oc1ccc(Cl)c2cccnc12 [cloxyquin] | 0 | 0.3 | 0 | 0 | 0 | > 10 | > 10 | > 10 | > 10 | > 10 | 96.1 | 98.1 | 104 | 96.9 | 95 | 102 | 98.9 | 116 | 93.4 | 88.2 | 99.7 | 105 | 99.9 | 101 | 97.7 | 87.9 | 100 | 96 | 106 | 105 | 94.4 | 99.3 | 99.4 | 99.8 | 97.4
13 | CCCCOc1ccc(C(=O)CCN2CCCCC2)cc1 [dyclonine] | 1.1 | 0 | 0 | 0 | 0 | > 10 | > 10 | > 10 | > 10 | > 10 | 102 | 108 | 101 | 85.7 | 94 | 96.6 | 93.3 | 106 | 98 | 94.7 | 94.7 | 102 | 99 | 98.6 | 97.3 | 96 | 109 | 99.2 | 109 | 102 | 99.9 | 103 | 94.3 | 100 | 95.5
14 | N=C(N)Nc1ccc2[nH]c3c(c2c1)C[C@@]1(O)[C@H]2Cc4ccc(O)c5c4[C@@]1(CCN2CC1CC1)[C@H]3O5 [GNTI] | 0 | 0.1 | 0 | 0 | 0 | > 10 | > 10 | > 10 | > 10 | > 10 | 99.7 | 95.2 | 99.4 | 95.6 | 102 | 99 | 122 | 111 | 98.2 | 88.1 | 101 | 97.4 | 104 | 104 | 101 | 93.8 | 92.7 | 98.3 | 102 | 106 | 99.7 | 93.5 | 101 | 101 | 104
